# Structures can show the parent of a compound that is named as a salt.
# Legend:
# [1] = system: HT-29 Cell line; assay: Cell growth inhibition of cancer cell lines (SRB assay), HT-29; type: cell-based
# Protocol: The tests on cell growth inhibitory activity were performed with respect to A549 (US, ATCC), SK-OV-3 (Korea Research Institute of Chemical Technology; KRICT), HT-29 (US, ATCC), MCF-7 cell (US, ATCC), using Sulforhodamin-B <SRB> Assay (1989, US National Cancer Institute (NCI)) which was developed to measure the in vitro anti-cancer activity of the drug. […] The samples of the compounds of the Examples according to the present invention were used for the tests, and before the tests, the samples were dissolved in dimethylsulfoxide and diluted with the culture medium (RPMI 1640) to be used. The final concentration of the sample was varied in the range of 0.3˜100 μM. After the culture medium was removed from the 96 well plates, the diluted sample solution was added by 100 μl, and cultured in 37° C., 5% CO2 culture medium for 72 hours. The time zero (Tz) plates were collected at the time point of adding the sample. Upon completing the culture, the medium was removed from each well along with Tz plate, then cold 10% trichloroacetic acid (TCA) was added by 100 μl per well. The wells were left at 4° C. for 1 hour, so that the cells were fixed into the bottom of the plates. After the cells were fixed, the plates were rinsed with water five to six times to remove the remaining trichloroacetic acid solution, and moisture was completely dried at room temperature. The cells were dyed for 30 minutes by adding the dye solution in which 0.4% sulforhodamine-B was dissolved in 1% acetic acid solution, by 100 μl per dried wells. The above was rinsed again with 1% acetic acid solution five to six times to ensure that sulforhodamine-B which had not attached to the cells was removed. The plates were again dried at room temperature. 100 μl of 10 mM tris-buffer was then added to dissolve the dye, and the optical density (OD) at 520 nm was measured with the microplate reader. GI50 of the sample regarding cancer cell was calculated as explained below. Time zero (Tz), control value (C) and test value (T) were obtained, in which Tz corresponds to OD value of time at which the sample is applied and culture is started, C corresponds to OD value of the well which is cultured without treatment with the sample, and T corresponds to OD value of the well which is treated with the sample and then cultured. The degree of cell growth inhibition of the sample was measured using: If […] [Mathematical Formula 1]
# Further, the ability of Examples 2, 42, 49, 52, 72, 74, 101 to increase growth inhibition effect of temozolomide and SN-38 at 2 μM was determined.
# [2] = system: Rat Middle Cerebral Artery Occlusion (MCAO) Animal Model; assay: Neuroprotective effect in rat middle cerebral artery occlusion (MCAO) animal model; type: in vivo; settings: for Infarct volume: 22 hours after reperfusion; for Percent of infraction decrease: vs control group
# Protocol: Animal test was performed on male Sprague Dawley rats (KOATECH Co., Ltd., South Korea) weighing 280 to 340 g. Animals were given food and water ad libitum and adapted to the test environment for 1 week. The modified intraluminal filament technique as described by Zea Longa et al. (Stroke, 20:84-91, 1989) was used to induce MCAO. The rats were developed ischemic regions due to insufficient blood flow in striatum and temporal lobe which are the domain regions of the middle cerebral artery and depletion of oxygen and energy sources after the middle cerebral artery occlusion. In order to occlude the middle cerebral artery with the intraluminal suture method, 4-0 nylon suture was cut to 22 mm, and 2 mm of the terminal end was rounded by flame heating. In order to increase the effect of damage preventing and occlusion in the lumen, a probe was coated with silicon to 0.3 mm.
# Rats were anaesthetized with isoflurane (3% for induction and 2% for surgical procedure) in a mixture of oxygen/nitrous oxide (30%/70%). The left common carotid artery (CCA) was exposed through a ventral midline incision in the neck. The external carotid artery (ECA), internal carotid artery (ICA), and CCA were carefully isolated and maintained in a Y-shape by use of silk suture. The upper external carotid artery was blocked by a thread, and a minute hole is bored 1 mm below the spot at which the external and internal carotid arteries bifurcate from the common carotid. The probe was inserted in the minute hole and fixed by a thread. The neck wound was closed and each animal was allowed to recover from anesthesia. 120 min after MCA occlusion, each animal was re-anesthetized, and the neck wound was re-opened to remove the thread. Along with the reperfusion, the compound of Example 74 was injected intravenously. 22 hours after the reperfusion, the animals were sacrificed by CO2 suffocation, decapitated, and 2 mm thick six coronal sections were obtained using rodent brain matrix. The coronal slices were incubated in phosphate-buffered saline (PBS) containing 2% 2,3,5-triphenyl tetrazolium chloride (TTC, Sigma) at 37° C. for 30 min, and then fixed in 4% phosphate-buffered formalin. After fixation these brain sections were scanned using a flat-bed scanner. The infarct area was determined by image J (NIH image version 1.59), and the total infarct volume was calculated by: Infarct volume (mm^3)=infarct […]×thickness of slice (2 mm) [Mathematical formula 3]
# The statistical analysis of the decrease of infarct volume was performed by Mann Whitney test (*:p<0.05, **:p<0.01).
smiles,measurement,setting,value
"COc1cc(CN2CCOCC2)cc2[nH]c(=O)c3c(c12)NCCC3 [Example 74, 10-Methoxy-8-(morpholinomethyl)-1,2,3,4-tetrahydrobenzo[h][1,6]naphthyridine-5(6H)-one dihydrochloride]",SN-38 PF50,[1]; 2 μM compound,3.5
same,Temozolomide PF50,[1]; 2 μM compound,>2.8
same,GI50,"[1]; Homo sapiens, 72 hours",30 µM
same,Infarct volume,[2]; 10 mg/kg intravenously at reperfusion,252.38 mm^3
same,Percent of infraction decrease,[2]; 10 mg/kg intravenously,4%
same,Infarct volume,[2]; 20 mg/kg intravenously at reperfusion,124.68 mm^3
same,Percent of infraction decrease,[2]; 20 mg/kg intravenously,53%
same,Infarct volume,[2]; 30 mg/kg intravenously at reperfusion,162.88 mm^3
same,Percent of infraction decrease,[2]; 30 mg/kg intravenously,38%

# Source: US8815891B2, “Tricyclic derivative or pharmaceutically acceptable salts thereof, preparation method thereof, and pharmaceutical composition containing the same” (Je Il Pharmaceutical Co., Ltd., priority 2008, dated 2014)
